# Experimental data as given in PubChem BioAssay AID2060610 (Molecular Pharmacology Branch, DTP, NCI, 2025).
# Where “and” joins values, the source holds several entries; their conditions need not be identical. Equal values may be shown once.
# Tested on: 616215-338-R-J1-PDC complex spheroids, viability % test/control
# Test: Anticancer human tumor 616215-338-R-J1-PDC patient-derived colon adenocarcinoma cell line growth inhibition [CLK]
# Conditions: for viability, T/C: stronger effect = lower value
# Description: A high-throughput screen of multi-cell type tumor spheroids was designed to identify active combinations of […] and targeted small molecules. Complex spheroids include a stromal component modeled by human endothelial cells (HUVEC) and fibroblasts modeled by human mesenchymal stem cells (MSCs). The concentration ranges selected for each drug and investigational agent were based upon clinically achievable concentrations if the clinical Cmax of the agent was known.
# Compounds. The drugs and investigational agents: cirtuvivint (SM08502; NSC835563), CC-671 (NSC850746), vemurafenib (NSC761431), tapotoclax (NSC804041), sotorasib (NSC818433), adagrasib (NSC831453), MRTX-1133 (NSC836407), BAY2416964 (NSC825713), copanlisib (NSC816437), inavolisib (NSC800729), abemaciclib (NSC768073), osimertinib (NSC779217), entinostat (NSC756642), eltanexor (KPT-8602, NSC794443), venetoclax (NSC766270), ceralasertib (NSC777638), bortezomib (NSC756655), olaparib (NSC753686), talazoparib (NSC767125), alisertib (NSC759677), peposertib (NSC802822), gemcitabine (NSC613327), 5-fluorouracil (NSC19893), SN-38 (NSC673596), oxaliplatin (NSC266046), paclitaxel (NSC125973), and doxorubicin (NSC123127), were obtained from the National Cancer Institute (NCI) Developmental Therapeutics Program Chemical Repository. The FDA-approved anticancer drug set is available from the Developmental Therapeutics Program at https://dtp.cancer.gov/organization/dscb/obtaining/available plates.htm. […] The stock solutions were prepared in dimethyl sulfoxide (DMSO, Sigma-Aldrich, St. Louis, MO, cat. D2650), except for the platinum complexes which were prepared in saline (Quality Biological, Gaithersburg, MD, cat. 114-055-101), at 800-fold the tested concentration and stored at -70 degrees C prior to their use. All drugs and investigational agents were tested over a range starting from a high concentration at or near the clinical Cmax and decreasing in half-log increments. If the clinical Cmax for an agent had not been determined, the highest concentration tested was 10 microM.
# Cell Culture. All cells were maintained in an incubator at 37 degrees C and 5% CO2 with 95% humidity. The PDC lines were cultured according to standard operating procedures established by the NCI PDMR. Briefly, all PDCs were thawed and cultured in Matrigel-coated flasks prepared with a working solution of 1X Ham's F-12 nutrient mix, without supplementation (Invitrogen, Waltham, MA, cat. 11765054), 100 U/mL penicillin-streptomycin (Invitrogen, cat. 15140122), and 2.5% Matrigel (Corning Inc., Corning, NY, cat. 354248) for the first three passages. The 947758-054-R-J2-PDC line was cultured in 6B/Colon 1A media, which includes advanced DMEM/F-12 (Thermo Fisher Scientific, cat. 12634028), 10 mM HEPES (Thermo Fisher Scientific, cat. 15630080), 1X GlutaMAX supplement (Thermo Fisher Scientific, cat. 35050061), 0.1 mg/mL primocin (InvivoGen, cat. ant-pm-2), 10% defined fetal bovine serum, heat inactivated (HyClone Laboratories Inc., cat. SH30070.03HI), 1.25 mM N-Acetyl-L-cysteine (Sigma-Aldrich, cat. A9165), 10 mM nicotinamide (Sigma-Aldrich, cat. N0636), 1X B-27 supplement (Thermo Fisher Scientific, cat. 17504044), 1X N-2 supplement (Thermo Fisher Scientific, cat. 17502048), and 10 microM Y-27632 dihydrochloride (Tocris Bioscience, cat. 1254). The 876862-298-R-J1-PDC was cultured in 6E media, which includes all 6B/Colon 1A media components plus 50% L-WRN conditioned media (ATCC, cat. CRL-3276), 50 ng/mL recombinant human EGF recombinant protein (hEGF; Thermo Fisher Scientific, cat. PHG0311), 10 ng/mL recombinant human fibroblast growth factor 10 (hGFG-10; PeproTech, cat. 100-26), 1 ng/mL recombinant human fibroblast growth factor 2 (hFGF-2; PeproTech, cat. 100-18B), and 1 µM prostaglandin E2 (PGE2; Tocris, cat. 2296). The 227483-062-R1-J1-PDC line was cultured in Panc media, containing all 6E components except hFGF-2, with the addition of 500 nM SB-431542 (Selleckchem, cat. S1067) and 10 nM gastrin (Tocris, cat. 3006). […]
# 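Note: spheroids exposed to agents for 7 days.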
# 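Throughout, for viability, T/C: 100% = DMSO vehicle wells.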
compound,measurement,setting,value
CCCS(=O)(=O)Nc1ccc(F)c(C(=O)c2c[nH]c3ncc(-c4ccc(Cl)cc4)cc23)c1F,"viability, T/C",compound 0.0316 µM,22.5% and 95.7%
same,"viability, T/C",compound 0.1 µM,33.6% and 96.8%
same,"viability, T/C",compound 0.316 µM,104% and 98.2%
same,"viability, T/C",compound 1 µM,96% and 95.1%
same,"viability, T/C",compound 3.16 µM,29.5% and 104%
same,"viability, T/C",compound 10 µM,0.01% and 24.1%
same,IC50,curve of compound,1.59 µM and 6.69 µM
NC(=O)C(=Cn1cnc(-c2cc(C(F)(F)F)cc(C(F)(F)F)c2)n1)c1cncnc1 + CN1CCN(c2cc(C(=O)Nc3cc4cc(-c5cnn(C)c5)ccc4cn3)ccn2)CC1,IC50,"curve of first compound, second compound 0.0316 µM",0.22 µM
same,IC50,"curve of first compound, second compound 0.1 µM",0.103 µM
same,IC50,"curve of first compound, second compound 0.316 µM",< 0.00949 µM
same,IC50,"curve of first compound, second compound 1 µM",< 0.00949 µM
same,IC50,"curve of first compound, second compound 3.16 µM",< 0.00949 µM
same,IC50,"curve of first compound, second compound 10 µM",< 0.00949 µM
same,"viability, T/C","second compound 0.0316 µM, first compound 0.00949 µM",113%
same,"viability, T/C","second compound 0.0316 µM, first compound 0.03 µM",114%
same,"viability, T/C","second compound 0.0316 µM, first compound 0.0949 µM",74.5%
same,"viability, T/C","second compound 0.0316 µM, first compound 0.3 µM",41.2%
same,"viability, T/C","second compound 0.0316 µM, first compound 0.949 µM",19.1%
same,"viability, T/C","second compound 0.0316 µM, first compound 3 µM",9.26%
same,"viability, T/C","second compound 0.1 µM, first compound 0.00949 µM",104%
same,"viability, T/C","second compound 0.1 µM, first compound 0.03 µM",80.3%
same,"viability, T/C","second compound 0.1 µM, first compound 0.0949 µM",53.4%
same,"viability, T/C","second compound 0.1 µM, first compound 0.3 µM",24.4%
same,"viability, T/C","second compound 0.1 µM, first compound 0.949 µM",9.65%
same,"viability, T/C","second compound 0.1 µM, first compound 3 µM",2.06%
same,"viability, T/C","second compound 0.316 µM, first compound 0.00949 µM",13.1%
same,"viability, T/C","second compound 0.316 µM, first compound 0.03 µM",10.7%
same,"viability, T/C","second compound 0.316 µM, first compound 0.0949 µM",1.47%
same,"viability, T/C","second compound 0.316 µM, first compound 0.3 µM",0.24%
same,"viability, T/C","second compound 0.316 µM, first compound 0.949 µM",0.92%
same,"viability, T/C","second compound 0.316 µM, first compound 3 µM",2.69%
same,"viability, T/C","second compound 1 µM, first compound 0.00949 µM",0.11%
same,"viability, T/C","second compound 1 µM, first compound 0.03 µM",0.13%
same,"viability, T/C","second compound 1 µM, first compound 0.0949 µM",1.63%
same,"viability, T/C","second compound 1 µM, first compound 0.3 µM",0.1%
same,"viability, T/C","second compound 1 µM, first compound 0.949 µM",0.37%
same,"viability, T/C","second compound 1 µM, first compound 3 µM",0.09%
same,"viability, T/C","second compound 3.16 µM, first compound 0.00949 µM",0.08%
same,"viability, T/C","second compound 3.16 µM, first compound 0.03 µM",0.11%
same,"viability, T/C","second compound 3.16 µM, first compound 0.0949 µM",0.16%
same,"viability, T/C","second compound 3.16 µM, first compound 0.3 µM",0.13%
same,"viability, T/C","second compound 3.16 µM, first compound 0.949 µM",0.13%
same,"viability, T/C","second compound 3.16 µM, first compound 3 µM",2.73%
same,"viability, T/C","second compound 10 µM, first compound 0.00949 µM",0.1%
same,"viability, T/C","second compound 10 µM, first compound 0.03 µM",0.13%
same,"viability, T/C","second compound 10 µM, first compound 0.0949 µM",0.41%
same,"viability, T/C","second compound 10 µM, first compound 0.3 µM",0.23%
same,"viability, T/C","second compound 10 µM, first compound 0.949 µM",0.23%
same,"viability, T/C","second compound 10 µM, first compound 3 µM",1.29%
